Drawing on patent publication US20240390340A1 (INCYTE CORPORATION, priority 2023, published 2024), this text covers IC50 and Caco-2 for ten molecules.

One data set deals with KRAS G12D (Homo sapiens, UniProt P01116, G12D). The data set can be described thus: GDP-GTP exchange assay (bodipy-GDP/GppNHp, SOS1), KRAS G12D. The class given is biochemical. The settings on record: Table H, column G12D; for compounds isolated as several atropisomers/diastereoisomers the value for the most potent isomer is quoted; read-out: KRAS G12D exchange assay IC50.
The target of another data set is KRAS G12V (Homo sapiens, UniProt P01116, G12V). The experiment in a line: GDP-GTP exchange assay (bodipy-GDP/GppNHp, SOS1), KRAS G12V. The class given is biochemical. The settings on record: Table H, column G12V; for compounds isolated as several atropisomers/diastereoisomers the value for the most potent isomer is quoted; read-out: KRAS G12V exchange assay IC50.
Another data set relates to Caco-2 cells. The data set can be described thus: Caco2 assay (Papp A-B). The settings on record: test compound 50 μM, 120 min, 37° C. The format is in vitro ADME. The method, boiled down:
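Caco-2 monolayers grown 22–25 days on Transwells (TEER 300 Ω·cm^2) were dosed apically with 50 μM compound in HBSS; basolateral receiver held HBSS with 4% BSA. Incubation 120 min at 37° C, 5% CO2; donor and receiver samples quantified by LCMS and Papp A-B calculated from receiver-side cumulative flux slope.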

pIC50: −log10 of the molar value.

KRAS G12V, sequence (P01116 1-188 isoform P01116-2 G12V): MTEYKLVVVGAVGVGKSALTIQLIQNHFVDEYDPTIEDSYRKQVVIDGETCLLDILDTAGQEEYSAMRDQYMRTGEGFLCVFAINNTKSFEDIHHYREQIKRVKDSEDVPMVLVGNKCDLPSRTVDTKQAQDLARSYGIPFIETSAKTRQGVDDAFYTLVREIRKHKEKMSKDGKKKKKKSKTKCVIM
KRAS G12D, sequence (P01116 1-188 isoform P01116-2 G12D): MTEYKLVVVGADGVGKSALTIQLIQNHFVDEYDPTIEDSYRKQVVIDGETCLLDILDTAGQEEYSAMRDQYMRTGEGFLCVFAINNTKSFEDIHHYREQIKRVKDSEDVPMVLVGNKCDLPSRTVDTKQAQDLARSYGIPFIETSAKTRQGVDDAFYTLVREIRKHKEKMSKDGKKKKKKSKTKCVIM

As a reminder, the pIC50 is −log10 of the IC50, conventionally taken in molar units. In the case of `COc1nccc(O[C@H]2C[C@H](c3cc4c(C)nc5c(F)c(-c6cccc(Cl)c6Cl)c(CCC#N)cc5c4n3[C@H]3[C@H]4CN[C@@H]3C4)N(C(=O)C3CC3)C2)n1` [Example 42, 3-(1-((1R,4R,5S)-2-Azabicyclo[2.1.1]hexan-5-yl)-2-((2R,4S)-1-(cyclopropanecarbonyl)-4-((2-methoxypyrimidin-4-yl)oxy)pyrrolidin-2-yl)-7-(2,3-dichlorophenyl)-6-fluoro-4-methyl-1H-pyrrolo[3,2-c]quinolin-8-yl)propanenitrile], the pIC50 at KRAS G12D and at KRAS G12V was no less than 7.00 throughout. Further, the Caco-2 result with Caco-2 cells is given as “+ (a Caco-2 value of ≤0.5)”.

Take `COc1cc(O[C@H]2C[C@H](c3cc4c(C)nc5c(F)c(-c6cccc(Cl)c6Cl)c(CCC#N)cc5c4n3[C@H]3[C@H]4CN[C@@H]3C4)N(C(=O)C3CC3)C2)c(F)cn1` [Example 43, 3-(1-((1R,4R,5S)-2-Azabicyclo[2.1.1]hexan-5-yl)-2-((2R,4S)-1-(cyclopropanecarbonyl)-4-((5-fluoro-2-methoxypyridin-4-yl)oxy)pyrrolidin-2-yl)-7-(2,3-dichlorophenyl)-6-fluoro-4-methyl-1H-pyrrolo[3,2-c]quinolin-8-yl)propanenitrile]: the negative-log IC50 (pIC50) on KRAS G12D and at KRAS G12V was no less than 7.00 throughout. In the data set with Caco-2 cells, the Caco-2 entry was “+ (a Caco-2 value of ≤0.5)”.

Turning to `COc1cccc(O[C@H]2C[C@H](c3cc4c(C)nc5c(F)c(-c6cccc(Cl)c6Cl)c(CCC#N)cc5c4n3[C@H]3[C@H]4CN[C@@H]3C4)N(C(=O)C3CC3)C2)c1` [Example 44, 3-(1-((1R,4R,5S)-2-Azabicyclo[2.1.1]hexan-5-yl)-2-((2R,4S)-1-(cyclopropanecarbonyl)-4-(3-methoxyphenoxy)pyrrolidin-2-yl)-7-(2,3-dichlorophenyl)-6-fluoro-4-methyl-1H-pyrrolo[3,2-c]quinolin-8-yl)propanenitrile], the pIC50 on KRAS G12D and on KRAS G12V was no less than 7.00 in each case. The Caco-2 entry in the data set with Caco-2 cells is “+ (a Caco-2 value of ≤0.5)”.

In the case of `Cc1nc2c(F)c(-c3cccc(Cl)c3Cl)c(CCC#N)cc2c2c1cc([C@H]1C[C@H](Oc3cccc(C#N)c3)CN1C(=O)C1CC1)n2[C@H]1[C@H]2CN[C@@H]1C2` [Example 45, 3-(((3S,5R)-5-(1-((1R,4R,5S)-2-Azabicyclo[2.1.1]hexan-5-yl)-8-(2-cyanoethyl)-7-(2,3-dichlorophenyl)-6-fluoro-4-methyl-1H-pyrrolo[3,2-c]quinolin-2-yl)-1-(cyclopropanecarbonyl)pyrrolidin-3-yl)oxy)benzonitrile], the negative logarithm of the IC50 (pIC50) at KRAS G12D and at KRAS G12V was no less than 7.00 each time. Moreover, the Caco-2 entry with Caco-2 cells is listed as “+ (a Caco-2 value of ≤0.5)”.

As to `Cc1nc2c(F)c(-c3cccc(Cl)c3Cl)c(CCC#N)cc2c2c1cc([C@H]1C[C@H](Oc3cnn(C)c3C#N)CN1C(=O)C1CC1)n2[C@H]1[C@H]2CN[C@@H]1C2` [Example 46, 4-(((3S,5R)-5-(1-((1R,4R,5S)-2-Azabicyclo[2.1.1]hexan-5-yl)-8-(2-cyanoethyl)-7-(2,3-dichlorophenyl)-6-fluoro-4-methyl-1H-pyrrolo[3,2-c]quinolin-2-yl)-1-(cyclopropanecarbonyl)pyrrolidin-3-yl)oxy)-1-methyl-1H-pyrazole-5-carbonitrile], the negative logarithm of the IC50 (pIC50) at KRAS G12D and at KRAS G12V was no less than 7.00 in each case. For the same molecule, the Caco-2 entry in the data set on Caco-2 cells is listed as “+ (a Caco-2 value of ≤0.5)”.

As for `Cc1nc2c(F)c(-c3cccc(Cl)c3Cl)c(CCC#N)cc2c2c1cc([C@H]1C[C@H](Oc3cnn(C)c3C(F)F)CN1C(=O)C1CC1)n2[C@H]1[C@H]2CN[C@@H]1C2` [Example 47, 3-(1-((1R,4R,5S)-2-Azabicyclo[2.1.1]hexan-5-yl)-2-((2R,4S)-1-(cyclopropanecarbonyl)-4-((5-(difluoromethyl)-1-methyl-1H-pyrazol-4-yl)oxy)pyrrolidin-2-yl)-7-(2,3-dichlorophenyl)-6-fluoro-4-methyl-1H-pyrrolo[3,2-c]quinolin-8-yl)propanenitrile], the pIC50 on KRAS G12D and on KRAS G12V was no less than 7.00 throughout. The Caco-2 result with Caco-2 cells is given as “+ (a Caco-2 value of ≤0.5)”.

Consider `Cc1nc2c(F)c(-c3cccc(Cl)c3Cl)c(CCC#N)cc2c2c1cc([C@H]1C[C@H](Oc3cnn(C(F)F)c3)CN1C(=O)C1CC1)n2[C@H]1[C@H]2CN[C@@H]1C2` [Example 48, 3-(1-((1R,4R,5S)-2-Azabicyclo[2.1.1]hexan-5-yl)-2-((2R,4S)-1-(cyclopropanecarbonyl)-4-((1-(difluoromethyl)-1H-pyrazol-4-yl)oxy)pyrrolidin-2-yl)-7-(2,3-dichlorophenyl)-6-fluoro-4-methyl-1H-pyrrolo[3,2-c]quinolin-8-yl)propanenitrile], for which the pIC50 at KRAS G12D and at KRAS G12V was no less than 7.00 each time. Moreover, the Caco-2 result with Caco-2 cells was “+++ (a Caco-2 value of >1)”.

Regarding `COc1ncccc1O[C@H]1C[C@H](c2cc3c(C)nc4c(F)c(-c5cccc(Cl)c5Cl)c(CCC#N)cc4c3n2[C@H]2[C@H]3CN[C@@H]2C3)N(C(=O)C2CC2)[C@@H]1C` [Example 49, 3-(1-((1R,4R,5S)-2-Azabicyclo[2.1.1]hexan-5-yl)-2-((2R,4S,5R)-1-(cyclopropanecarbonyl)-4-((2-methoxypyridin-3-yl)oxy)-5-methylpyrrolidin-2-yl)-7-(2,3-dichlorophenyl)-6-fluoro-4-methyl-1H-pyrrolo[3,2-c]quinolin-8-yl)propanenitrile], the pIC50 on KRAS G12D and at KRAS G12V was no less than 7.00 in each case. Further, the Caco-2 entry in the data set with Caco-2 cells is “+++ (a Caco-2 value of >1)”.

On to `COc1cc(O[C@H]2C[C@H](c3cc4c([C@@H](C)O)nc5c(F)c(-c6cccc(Cl)c6Cl)c(CCC#N)cc5c4n3[C@H]3[C@H]4CN[C@@H]3C4)N(C(=O)C3CC3)[C@@H]2C)c(F)cn1` [Example 51, 3-(1-((1R,4R,5S)-2-Azabicyclo[2.1.1]hexan-5-yl)-2-((2R,4S,5R)-1-(cyclopropanecarbonyl)-4-((5-fluoro-2-methoxypyridin-4-yl)oxy)-5-methylpyrrolidin-2-yl)-7-(2,3-dichlorophenyl)-6-fluoro-4-((R)-1-hydroxyethyl)-1H-pyrrolo[3,2-c]quinolin-8-yl)propanenitrile], for which the negative logarithm of the IC50 (pIC50) at KRAS G12D and on KRAS G12V was no less than 7.00 in each case. Moreover, in the data set on Caco-2 cells, the Caco-2 entry was “+ (a Caco-2 value of ≤0.5)”.

`COc1cc(O[C@H]2C[C@H](c3cc4c([C@@H](C)O)nc5c(F)c(-c6cccc(Cl)c6Cl)c(CCC#N)cc5c4n3[C@H]3[C@H]4CN[C@@H]3C4)N(C(=O)C3(C)CC3)[C@@H]2C)c(F)cn1` [Example 52, 3-(1-((1R,4R,5S)-2-Azabicyclo[2.1.1]hexan-5-yl)-7-(2,3-dichlorophenyl)-6-fluoro-2-((2R,4S,5R)-4-((5-fluoro-2-methoxypyridin-4-yl)oxy)-5-methyl-1-(1-methylcyclopropane-1-carbonyl)pyrrolidin-2-yl)-4-((R)-1-hydroxyethyl)-1H-pyrrolo[3,2-c]quinolin-8-yl)propanenitrile]: the negative-log IC50 (pIC50) on KRAS G12D and at KRAS G12V was no less than 7.00 each time. Moreover, the Caco-2 result in the data set with Caco-2 cells was “+ (a Caco-2 value of ≤0.5)”.
